In patent US20040028687A1, “Methods and compositions for the targeted delivery of therapeutic substances to specific cells and tissues” (priority 2002, published 2004):
Read-outs that look alike come from different tables or passages of the source.

How the values were obtained:
rNeu^+ (NF 9006) tumors = type: in vivo, mice; conditions: established rNeu+ tumors, i.v. every 3-4 days; comparison between treatments
rNeu^+ tumor cells = type: in vivo, mice
Description: FIG. 6: Effect of virosome treatment on recently implanted tumors. 2×10^5 rNeu^+ tumor cells were injected s.c. and treatment was started 3-5 days later. I.v. injections of the different virosome formulations such as Doxo-Vir, Fab′-Doxo-Vir, Fab′-Vir and free Doxo (all at a concentration of 150 μg/ml doxorubicin) were performed at the indicated time points (arrows) for a period of three weeks. Tumor size was assessed twice a week during therapy and weekly in the follow-up period. Tumor formation (defined as volume >90 mm^3) in the different groups and the follow-up of >12 weeks is shown. Statistical analysis using Mann-Whitney rank test was performed. Control groups (◯), free Doxo (▾), Doxo-Vir (♦), Fab′-Vir (●), Fab′-Doxo-Vir (▪)
In another preferred embodiment of the invention, conjugated virosomes are used to arrest the metastatic spread of tumors. […] The effect of Fab′ conjugated virosomes on the growth of tumor metastases is assessed as follows. […] Tumor formation is assessed by palpation followed by measurement of tumor size as described in the previous example. […]
For the micrometastatic stage of tumor formation, 0.2×10^6 tumor cells are injected s.c. and treatment is started 3-5 days later. […] Tumor formation is assessed by palpation followed by measurement of tumor size as described in the previous example. […]

[1] = cited from earlier work

COc1cccc2c1C(=O)c1c(O)c3c(c(O)c1C2=O)C[C@@](O)(C(=O)CO)C[C@@H]3O[C@H]1C[C@H](N)[C@H](O)[C@H](C)O1 [free Doxo, doxorubicin]
tumor progression compared with another treatment group (rNeu^+ (NF 9006) tumors): no significant difference in tumor progression | median time to tumor formation (rNeu^+ tumor cells; 2×10^5 rNeu+ cells s.c., treatment from day 3-5, 9 injections over 3 weeks, tumor formation >90 mm^3): 20 days | tumor development (rNeu^+ tumor cells; within 4 weeks after tumor cell inoculation, all mice of the group): developed tumors | tolerated dose ([1]; SCID mice): 2 to 3 mg/kg | tolerated dose ([1]; normal mice): 6 mg/kg
